Inhibition data for five molecules are collected here from ChEMBL document CHEMBL3132769, “Fragment growing to retain or alter the selectivity of anchored kinase hinge-binding fragments” (Medchemcomm, 2014).

Test [1] concerns the target Calcium/calmodulin-dependent protein kinase type II subunit gamma (Homo sapiens) (UniProt Q13555). The test is described as follows: Inhibition of human CAMK2 gamma catalytic domain expressed in baculovirus assessed as substrate phosphorylation using fluorescence-labelled peptides as substrate at 2 uM after 90 mins by microfluidic peptide phosphorylation assay.
The target of test [2] is Vascular endothelial growth factor receptor 2 (Homo sapiens) (UniProt P35968). Kind of test: Inhibition of human KDR cytoplasmic domain expressed in baculovirus assessed as substrate phosphorylation using fluorescence-labelled peptides as substrate at 2 uM after 90 mins by microfluidic peptide phosphorylation assay.
Chain of Vascular endothelial growth factor receptor 2 (Homo sapiens) (P35968 whole entry, the tested form may be a part): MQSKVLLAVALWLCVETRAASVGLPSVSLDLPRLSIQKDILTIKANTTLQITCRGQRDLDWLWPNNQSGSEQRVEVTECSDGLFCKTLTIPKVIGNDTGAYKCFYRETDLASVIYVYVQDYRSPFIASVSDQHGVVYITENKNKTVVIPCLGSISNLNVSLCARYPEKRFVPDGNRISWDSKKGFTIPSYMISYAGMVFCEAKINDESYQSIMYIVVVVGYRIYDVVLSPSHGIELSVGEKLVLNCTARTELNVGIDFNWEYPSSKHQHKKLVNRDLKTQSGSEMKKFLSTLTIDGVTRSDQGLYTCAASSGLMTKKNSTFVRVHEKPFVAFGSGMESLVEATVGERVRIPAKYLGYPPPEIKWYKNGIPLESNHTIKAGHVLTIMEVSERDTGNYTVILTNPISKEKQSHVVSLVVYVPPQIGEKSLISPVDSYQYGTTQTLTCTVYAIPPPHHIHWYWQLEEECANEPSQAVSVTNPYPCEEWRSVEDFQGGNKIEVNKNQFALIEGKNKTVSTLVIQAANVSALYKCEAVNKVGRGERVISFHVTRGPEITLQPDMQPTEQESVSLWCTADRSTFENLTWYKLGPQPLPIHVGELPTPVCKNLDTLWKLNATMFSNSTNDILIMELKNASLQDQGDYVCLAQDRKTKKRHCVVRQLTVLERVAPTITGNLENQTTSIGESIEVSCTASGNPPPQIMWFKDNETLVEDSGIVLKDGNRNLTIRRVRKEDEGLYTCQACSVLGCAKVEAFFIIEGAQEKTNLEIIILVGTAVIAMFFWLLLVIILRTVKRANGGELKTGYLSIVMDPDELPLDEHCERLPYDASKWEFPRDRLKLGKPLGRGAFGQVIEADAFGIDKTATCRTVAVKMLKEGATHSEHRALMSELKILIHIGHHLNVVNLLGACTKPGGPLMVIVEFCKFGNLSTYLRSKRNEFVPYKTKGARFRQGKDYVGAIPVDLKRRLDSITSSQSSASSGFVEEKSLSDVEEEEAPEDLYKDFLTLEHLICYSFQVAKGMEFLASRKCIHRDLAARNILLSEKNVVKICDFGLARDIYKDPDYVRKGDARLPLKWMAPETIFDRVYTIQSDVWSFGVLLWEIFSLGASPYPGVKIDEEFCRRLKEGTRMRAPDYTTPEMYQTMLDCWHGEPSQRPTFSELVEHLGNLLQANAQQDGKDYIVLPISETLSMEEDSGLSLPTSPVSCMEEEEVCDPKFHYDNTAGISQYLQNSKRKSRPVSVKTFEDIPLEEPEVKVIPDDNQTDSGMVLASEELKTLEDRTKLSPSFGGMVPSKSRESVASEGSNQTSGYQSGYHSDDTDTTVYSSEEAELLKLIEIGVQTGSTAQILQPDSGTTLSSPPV
For test [3], the target named is Ribosomal protein S6 kinase alpha-1 (Homo sapiens) (UniProt Q15418). Kind of test: Inhibition of human full length RSK1 expressed in baculovirus assessed as substrate phosphorylation using fluorescence-labelled peptides as substrate at 2 uM after 90 mins by microfluidic peptide phosphorylation assay.
Chain of Ribosomal protein S6 kinase alpha-1 (Homo sapiens) (Q15418 whole entry): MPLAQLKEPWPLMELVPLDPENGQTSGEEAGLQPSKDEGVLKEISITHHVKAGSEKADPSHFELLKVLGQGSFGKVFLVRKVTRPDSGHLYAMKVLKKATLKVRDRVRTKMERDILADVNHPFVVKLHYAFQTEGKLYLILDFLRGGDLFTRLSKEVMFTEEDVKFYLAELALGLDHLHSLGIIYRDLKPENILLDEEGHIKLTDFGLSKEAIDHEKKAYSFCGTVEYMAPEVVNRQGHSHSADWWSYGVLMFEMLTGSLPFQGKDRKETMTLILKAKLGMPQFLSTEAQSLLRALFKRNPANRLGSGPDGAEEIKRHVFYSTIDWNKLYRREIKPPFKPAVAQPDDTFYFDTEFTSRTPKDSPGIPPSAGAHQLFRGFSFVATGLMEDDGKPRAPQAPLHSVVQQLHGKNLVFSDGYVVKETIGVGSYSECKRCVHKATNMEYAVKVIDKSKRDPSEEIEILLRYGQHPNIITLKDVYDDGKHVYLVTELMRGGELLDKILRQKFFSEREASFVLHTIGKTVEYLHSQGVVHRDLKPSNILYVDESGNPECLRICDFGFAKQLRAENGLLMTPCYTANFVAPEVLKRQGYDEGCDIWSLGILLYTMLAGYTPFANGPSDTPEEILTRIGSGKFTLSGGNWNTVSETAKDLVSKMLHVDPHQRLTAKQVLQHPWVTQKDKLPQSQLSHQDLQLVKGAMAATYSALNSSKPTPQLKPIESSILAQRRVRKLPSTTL
In test [4] the target is T1, Serine/threonine-protein kinase Sgk2 (Homo sapiens) (UniProt Q9HBY8).
T1 sequence (whole entry): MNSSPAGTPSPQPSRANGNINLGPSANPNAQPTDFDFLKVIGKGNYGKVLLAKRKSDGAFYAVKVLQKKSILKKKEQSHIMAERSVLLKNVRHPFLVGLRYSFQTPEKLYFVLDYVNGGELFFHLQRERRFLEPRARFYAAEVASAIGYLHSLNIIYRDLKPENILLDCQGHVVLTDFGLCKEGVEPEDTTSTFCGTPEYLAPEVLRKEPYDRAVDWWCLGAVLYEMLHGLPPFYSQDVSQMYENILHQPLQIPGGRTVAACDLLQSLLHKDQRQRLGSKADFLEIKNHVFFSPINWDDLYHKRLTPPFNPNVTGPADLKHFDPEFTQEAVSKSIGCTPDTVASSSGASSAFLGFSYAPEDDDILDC
The test is described as follows: Inhibition of human full length SGK2 expressed in baculovirus assessed as substrate phosphorylation using fluorescence-labelled peptides as substrate at 0.06 uM after 90 mins by microfluidic peptide phosphorylation assay.

Test [5] concerns the target T2, cGMP-dependent protein kinase 1 (Homo sapiens) (UniProt Q13976).
T2 sequence (whole entry): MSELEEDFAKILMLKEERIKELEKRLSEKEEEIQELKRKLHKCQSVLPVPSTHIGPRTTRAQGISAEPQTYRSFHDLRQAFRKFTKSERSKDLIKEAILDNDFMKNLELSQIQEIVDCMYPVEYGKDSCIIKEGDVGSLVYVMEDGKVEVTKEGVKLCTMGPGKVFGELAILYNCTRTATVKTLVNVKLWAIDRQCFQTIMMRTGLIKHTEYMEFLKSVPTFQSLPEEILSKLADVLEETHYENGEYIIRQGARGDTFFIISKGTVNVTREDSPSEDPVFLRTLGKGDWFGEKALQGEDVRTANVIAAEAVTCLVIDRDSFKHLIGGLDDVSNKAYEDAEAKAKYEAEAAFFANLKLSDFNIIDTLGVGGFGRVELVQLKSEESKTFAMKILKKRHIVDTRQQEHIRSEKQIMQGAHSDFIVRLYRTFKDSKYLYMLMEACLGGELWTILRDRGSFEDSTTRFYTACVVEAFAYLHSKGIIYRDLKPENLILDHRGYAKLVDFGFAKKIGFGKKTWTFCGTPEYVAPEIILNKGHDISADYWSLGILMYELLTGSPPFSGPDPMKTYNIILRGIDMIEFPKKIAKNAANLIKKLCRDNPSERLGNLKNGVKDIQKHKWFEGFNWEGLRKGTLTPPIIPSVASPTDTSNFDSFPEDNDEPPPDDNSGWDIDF
The test is described as follows: Inhibition of human full length PKG-1a expressed in baculovirus assessed as substrate phosphorylation using fluorescence-labelled peptides as substrate at 0.06 uM after 90 mins by microfluidic peptide phosphorylation assay.

Test [6] addresses Insulin-like growth factor 1 receptor (Homo sapiens) (UniProt P08069). The test is described as follows: Inhibition of human IGF1R catalytic domain expressed in baculovirus assessed as substrate phosphorylation using fluorescence-labelled peptides as substrate at 0.06 uM after 90 mins by microfluidic peptide phosphorylation assay.
Test [7] deals with T3, Cytoplasmic tyrosine-protein kinase BMX (Homo sapiens) (UniProt P51813).
T3 sequence (whole entry): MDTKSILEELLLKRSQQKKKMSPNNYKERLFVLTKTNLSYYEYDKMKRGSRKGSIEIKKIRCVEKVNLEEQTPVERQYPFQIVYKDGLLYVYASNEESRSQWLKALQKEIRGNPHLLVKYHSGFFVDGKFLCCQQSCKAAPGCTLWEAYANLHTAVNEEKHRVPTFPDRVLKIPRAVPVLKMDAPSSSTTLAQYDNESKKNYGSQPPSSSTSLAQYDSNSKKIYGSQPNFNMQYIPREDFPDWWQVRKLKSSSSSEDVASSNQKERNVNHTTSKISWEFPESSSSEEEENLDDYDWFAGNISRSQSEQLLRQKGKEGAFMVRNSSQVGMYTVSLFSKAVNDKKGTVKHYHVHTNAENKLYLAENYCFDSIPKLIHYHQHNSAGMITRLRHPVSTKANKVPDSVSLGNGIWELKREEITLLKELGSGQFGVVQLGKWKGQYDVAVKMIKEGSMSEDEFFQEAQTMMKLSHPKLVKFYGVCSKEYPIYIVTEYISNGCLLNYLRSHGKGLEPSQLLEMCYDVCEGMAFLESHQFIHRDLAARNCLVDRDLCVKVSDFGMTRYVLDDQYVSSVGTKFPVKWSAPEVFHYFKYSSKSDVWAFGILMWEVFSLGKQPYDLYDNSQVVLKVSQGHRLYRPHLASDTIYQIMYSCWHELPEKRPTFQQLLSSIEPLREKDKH
Kind of test: Inhibition of human full length BMX expressed in baculovirus assessed as substrate phosphorylation using fluorescence-labelled peptides as substrate at 0.06 uM after 90 mins by microfluidic peptide phosphorylation assay.

Test [8] deals with Tyrosine-protein kinase ABL1 (Homo sapiens), P00519 [T315I]. Kind of test: Inhibition of human truncated ABL T315I mutant expressed in baculovirus assessed as substrate phosphorylation using fluorescence-labelled peptides as substrate at 0.06 uM after 90 mins by microfluidic peptide phosphorylation assay.
Test [9] concerns the target MAP kinase-activated protein kinase 2 (Homo sapiens) (UniProt P49137). Kind of test: Inhibition of human full length MAPKAPK2 expressed in baculovirus assessed as substrate phosphorylation using fluorescence-labelled peptides as substrate at 95 uM after 90 mins by microfluidic peptide phosphorylation assay.
The target of test [10] is Glycogen synthase kinase-3 beta (Homo sapiens) (UniProt P49841). Kind of test: Inhibition of human full length GSK-3 beta expressed in baculovirus assessed as substrate phosphorylation using fluorescence-labelled peptides as substrate at 70 uM after 90 mins by microfluidic peptide phosphorylation assay.
Chain of Glycogen synthase kinase-3 beta (Homo sapiens) (P49841 whole entry, looked up): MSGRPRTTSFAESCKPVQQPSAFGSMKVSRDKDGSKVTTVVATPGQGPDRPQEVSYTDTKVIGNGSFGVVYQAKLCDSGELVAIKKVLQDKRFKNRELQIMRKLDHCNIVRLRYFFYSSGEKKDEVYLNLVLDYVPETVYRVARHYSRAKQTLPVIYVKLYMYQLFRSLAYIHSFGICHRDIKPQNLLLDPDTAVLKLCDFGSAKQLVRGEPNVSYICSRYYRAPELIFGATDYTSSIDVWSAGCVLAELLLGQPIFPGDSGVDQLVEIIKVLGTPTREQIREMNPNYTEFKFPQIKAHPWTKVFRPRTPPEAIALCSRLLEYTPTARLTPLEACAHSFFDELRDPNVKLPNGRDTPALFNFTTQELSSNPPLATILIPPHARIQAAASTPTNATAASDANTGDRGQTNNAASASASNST
Test [11] addresses MAP/microtubule affinity-regulating kinase 3 (Homo sapiens) (UniProt P27448). The test is described as follows: Inhibition of human full length c-TAK1 expressed in Escherichia coli cell assessed as substrate phosphorylation using fluorescence-labelled peptides as substrate at 70 uM after 90 mins by microfluidic peptide phosphorylation assay.
Test [12] has as its target Ribosomal protein S6 kinase alpha-5 (Homo sapiens) (UniProt O75582). Kind of test: Inhibition of human full length MSK1 expressed in baculovirus assessed as substrate phosphorylation using fluorescence-labelled peptides as substrate at 420 uM after 90 mins by microfluidic peptide phosphorylation assay.

What is called inhibition is the change of the read-out against control, counted positive when it falls.

Chain of MAP/microtubule affinity-regulating kinase 3 (Homo sapiens) (P27448 whole entry, looked up): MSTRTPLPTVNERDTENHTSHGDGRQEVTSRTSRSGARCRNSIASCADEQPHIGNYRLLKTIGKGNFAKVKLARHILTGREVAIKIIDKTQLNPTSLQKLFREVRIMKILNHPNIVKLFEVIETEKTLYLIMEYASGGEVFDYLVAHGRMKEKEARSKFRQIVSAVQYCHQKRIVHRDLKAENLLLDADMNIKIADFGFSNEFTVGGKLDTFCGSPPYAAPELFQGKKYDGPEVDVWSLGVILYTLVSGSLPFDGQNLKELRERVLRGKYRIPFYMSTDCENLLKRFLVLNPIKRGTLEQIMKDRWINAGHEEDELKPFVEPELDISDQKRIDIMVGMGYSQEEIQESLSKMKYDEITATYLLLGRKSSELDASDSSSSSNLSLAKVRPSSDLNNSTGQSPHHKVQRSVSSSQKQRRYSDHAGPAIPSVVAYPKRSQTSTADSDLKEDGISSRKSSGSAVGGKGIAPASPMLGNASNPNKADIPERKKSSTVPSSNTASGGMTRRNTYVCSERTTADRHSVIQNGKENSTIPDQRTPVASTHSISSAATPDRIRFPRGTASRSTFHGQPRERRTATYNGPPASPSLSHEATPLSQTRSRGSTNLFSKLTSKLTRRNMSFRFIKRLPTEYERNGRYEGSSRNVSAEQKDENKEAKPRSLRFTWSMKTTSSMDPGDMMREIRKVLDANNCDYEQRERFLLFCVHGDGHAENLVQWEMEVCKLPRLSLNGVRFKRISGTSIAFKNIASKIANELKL
Chain of Calcium/calmodulin-dependent protein kinase type II subunit gamma (Homo sapiens) (Q13555 whole entry, the tested form may be a part): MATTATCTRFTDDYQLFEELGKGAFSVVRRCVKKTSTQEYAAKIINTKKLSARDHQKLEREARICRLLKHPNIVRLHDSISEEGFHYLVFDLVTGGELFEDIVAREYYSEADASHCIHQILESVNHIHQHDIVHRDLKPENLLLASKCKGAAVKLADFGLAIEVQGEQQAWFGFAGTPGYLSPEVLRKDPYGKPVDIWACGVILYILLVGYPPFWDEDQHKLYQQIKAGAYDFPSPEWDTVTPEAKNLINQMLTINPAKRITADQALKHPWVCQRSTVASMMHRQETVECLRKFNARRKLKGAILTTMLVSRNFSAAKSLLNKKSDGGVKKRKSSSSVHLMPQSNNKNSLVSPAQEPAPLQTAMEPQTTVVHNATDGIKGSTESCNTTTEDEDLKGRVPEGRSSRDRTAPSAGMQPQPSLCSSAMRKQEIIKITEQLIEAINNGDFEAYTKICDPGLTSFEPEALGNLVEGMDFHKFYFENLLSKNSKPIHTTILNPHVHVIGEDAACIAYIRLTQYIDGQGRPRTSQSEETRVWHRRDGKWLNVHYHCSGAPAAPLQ
Chain of MAP kinase-activated protein kinase 2 (Homo sapiens) (P49137 whole entry, looked up): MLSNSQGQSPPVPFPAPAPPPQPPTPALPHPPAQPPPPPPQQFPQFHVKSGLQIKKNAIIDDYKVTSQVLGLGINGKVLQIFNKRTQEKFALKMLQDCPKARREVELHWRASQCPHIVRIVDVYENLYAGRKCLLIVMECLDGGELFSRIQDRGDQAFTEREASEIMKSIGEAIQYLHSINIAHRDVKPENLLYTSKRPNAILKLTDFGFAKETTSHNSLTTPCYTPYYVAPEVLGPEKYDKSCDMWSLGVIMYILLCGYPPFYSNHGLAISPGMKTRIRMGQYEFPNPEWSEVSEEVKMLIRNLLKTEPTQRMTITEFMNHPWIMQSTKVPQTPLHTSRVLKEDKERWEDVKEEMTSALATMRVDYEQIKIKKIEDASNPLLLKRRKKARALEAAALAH
Chain of Ribosomal protein S6 kinase alpha-5 (Homo sapiens) (O75582 whole entry, looked up): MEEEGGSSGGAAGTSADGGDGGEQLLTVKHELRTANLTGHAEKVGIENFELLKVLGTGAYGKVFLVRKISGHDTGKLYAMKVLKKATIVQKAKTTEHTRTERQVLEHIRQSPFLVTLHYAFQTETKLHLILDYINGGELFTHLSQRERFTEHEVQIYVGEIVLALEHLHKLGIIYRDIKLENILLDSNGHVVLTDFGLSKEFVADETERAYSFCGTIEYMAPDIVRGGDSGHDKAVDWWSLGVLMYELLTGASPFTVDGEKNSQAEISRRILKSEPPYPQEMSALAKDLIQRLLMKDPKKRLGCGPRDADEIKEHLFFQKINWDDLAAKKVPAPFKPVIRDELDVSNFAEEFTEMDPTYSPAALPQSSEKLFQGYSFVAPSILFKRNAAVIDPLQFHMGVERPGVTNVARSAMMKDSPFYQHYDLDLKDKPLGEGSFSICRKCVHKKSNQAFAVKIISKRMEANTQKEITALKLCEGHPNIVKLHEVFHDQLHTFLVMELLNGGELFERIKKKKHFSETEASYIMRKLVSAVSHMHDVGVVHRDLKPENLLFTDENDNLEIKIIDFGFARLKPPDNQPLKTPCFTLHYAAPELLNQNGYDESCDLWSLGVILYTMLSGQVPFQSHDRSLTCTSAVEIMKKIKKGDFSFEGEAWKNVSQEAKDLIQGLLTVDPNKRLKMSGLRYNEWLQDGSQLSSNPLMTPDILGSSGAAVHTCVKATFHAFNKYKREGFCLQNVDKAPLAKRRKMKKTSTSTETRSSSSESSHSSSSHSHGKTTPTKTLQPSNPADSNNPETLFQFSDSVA

Consider `NC1CCN(c2ncnc3[nH]ccc23)CC1`, for which the inhibition in test [1] came to 0%; in test [2], 0%; in test [3], 7.5%.
With `NC1(Cc2ccc(Cl)cc2)CCN(c2ncnc3[nH]ccc23)CC1`, the inhibition in [4] was 9%; in test [5], 0%; in test [6] it was 0%; in test [7] it was 0%; in [8], 0%.
In the case of `NCCc1ccc(-c2ncnc3[nH]cnc23)cc1`, in test [9], the inhibition was determined as 56.5%.
On to `CNCc1ccc(-c2ncnc3[nH]cnc23)cc1`, for which the inhibition in test [10] worked out at 37.5%; in test [11] it was 6.5%.
With `c1nc(N2CCOCC2)c2nc[nH]c2n1`, the inhibition in test [12] was determined as 78.5%.
